Assay results published in patent US12479827B2, “Heteroaromatic carboxamide derivatives as plasma kallikrein inhibitors” (Boehringer Ingelheim International GmbH, priority 2020, dated 2025).

Columns and labels:
Human PKK = target: T1, Human PKK (Homo sapiens, UniProt P03952); assay: Inhibition of PKK using an endpoint assay (human PKK); format: biochemical; conditions: fluorogenic substrate H-Pro-Phe-Arg-AMC, 1 h room temperature, method names human or rat PKK, table does not say which
T1 construct: purchased Enzyme Research Laboratories
T1 sequence (P03952 20-390 limits assumed): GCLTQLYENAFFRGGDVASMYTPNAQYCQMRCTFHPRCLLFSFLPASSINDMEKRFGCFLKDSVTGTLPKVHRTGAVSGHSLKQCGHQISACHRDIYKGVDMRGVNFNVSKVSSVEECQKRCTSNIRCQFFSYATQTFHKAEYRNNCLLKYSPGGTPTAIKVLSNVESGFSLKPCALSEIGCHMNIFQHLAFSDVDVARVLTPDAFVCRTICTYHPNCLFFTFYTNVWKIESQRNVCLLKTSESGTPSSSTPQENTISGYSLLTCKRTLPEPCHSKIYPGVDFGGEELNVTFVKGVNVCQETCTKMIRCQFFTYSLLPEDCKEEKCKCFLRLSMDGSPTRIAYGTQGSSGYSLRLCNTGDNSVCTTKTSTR
T1 sequence (P03952 391-638 limits assumed): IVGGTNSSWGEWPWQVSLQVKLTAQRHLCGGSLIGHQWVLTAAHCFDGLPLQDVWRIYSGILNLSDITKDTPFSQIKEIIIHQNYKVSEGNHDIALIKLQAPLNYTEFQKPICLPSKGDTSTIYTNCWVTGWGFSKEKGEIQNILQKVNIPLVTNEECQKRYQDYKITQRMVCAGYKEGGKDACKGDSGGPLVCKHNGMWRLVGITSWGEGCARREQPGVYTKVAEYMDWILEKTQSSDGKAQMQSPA
Procedure, shortened: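 Endpoint fluorescence (ex 355 nm, em 460 nm) after stopping with 1 μM final PPACK II. Buffer: Tris 100 mM pH 7.8, NaCl 150 mM, BSA 0.1%, Tween20 0.05%, with 1% DMSO present; enzyme is human plasma kallikrein.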

[1] = target: T2, PKK in kaolin activated human platelet poor plasma (Homo sapiens, UniProt P03952); assay: Inhibition of PKK in kaolin activated human PPP; format: biochemical; conditions: 25-750 μg/mL kaolin, global fit, text b200 calls the values IC90;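 note: readout is the rate of fluorogenic substrate cleavage in rfu per min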
T2 construct: Platelet poor plasma (PPP) obtained from human wholeblood; from tissue
T2 sequence (P03952 391-638 limits assumed): as above
T2 sequence (P03952 20-390 limits assumed): as the sequence (P03952 20-390 limits assumed) above
Experimental: Platelet poor plasma (PPP) obtained from human wholeblood, anticoagulated with Na-Citrate, is incubated with various concentrations of the test compound together with either 25, 75, 250, or 750 μg/mL kaolin in assay buffer for 20 min at 37° C. such that for each kaolin dose used a concentration response is obtained for the test compound.

| IC50 (Human PKK) [nM] | IC50 [1] [nM] | Compound |
| --- | --- | --- |
| 1.2 | 430 | Cc1nc(N2CC3C(C2)C3(F)F)ccc1Cc1cc(C(=O)N[C@@H]2CCc3c2ncn3C)on1 (stereo partly drawn) [Example 152, 3-[(6-{6,6-Difluoro-3-azabicyclo[3.1.0]hexan-3-yl}-2-methylpyridin-3-yl)methyl]-N-[(4R)-1-methyl-1H,4H,5H,6H-cyclopenta[d]imidazol-4-yl]-1,2-oxazole-5-carboxamide] |
| 2.2 | 967 | CCc1nc(N2CC3C(C2)C3(F)F)ccc1Cc1cc(C(=O)N[C@@H]2CCc3c2ncn3C)n(C(C)C)n1 (stereo partly drawn) [Example 160, 3-[(6-{6,6-Difluoro-3-azabicyclo[3.1.0]hexan-3-yl}-2-ethylpyridin-3-yl)methyl]-N-[(4R)-1-methyl-1H,4H,5H,6H-cyclopenta[d]imidazol-4-yl]-1-(propan-2-yl)-1H-pyrazole-5-carboxamide] |
| 3 | 203 | Cn1cnc2c1CC[C@H]2NC(=O)c1cn(Cc2ccc(N3CC4C(C3)C4(F)F)nc2)cn1 (stereo partly drawn) [Example 63, 1-[(6-{6,6-Difluoro-3-azabicyclo[3.1.0]hexan-3-yl}pyridin-3-yl)methyl]-N-[(4R)-1-methyl-1H,4H,5H,6H-cyclopenta[d]imidazol-4-yl]-1H-imidazole-4-carboxamide] |
| 77.5 | 3430 | Cn1cnc2c1CC[C@H]2NC(=O)c1cnn(Cc2ncc(N3CC4CC4C3)nc2CO)c1 (stereo partly drawn) [Example 89, 1-[(5-{3-Azabicyclo[3.1.0]hexan-3-yl}-3-(hydroxymethyl)-pyrazin-2-yl)methyl]-N-[(4R)-1-methyl-1H,4H,5H,6H-cyclopenta[d]imidazol-4-yl]-1H-pyrazole-4-carboxamide] |
| 19.8 | 1500 | Cc1nc(N2CC3C(C2)C3(F)F)ccc1Cc1ncc(C(=O)N[C@@H]2CCc3c2ncn3C)s1 (stereo partly drawn) [Example 188, 2-[(6-{6,6-Difluoro-3-azabicyclo[3.1.0]hexan-3-yl}-2-methylpyridin-3-yl)methyl]-N-[(4R)-1-methyl-1H,4H,5H,6H-cyclopenta[d]imidazol-4-yl]-1,3-thiazole-5-carboxamide] |
| 0.6 | 270 | CCc1nc(N2CC3C(C2)C3(F)F)ccc1Cn1cnc(C(=O)N[C@@H]2CCc3c2ncn3C)c1 (stereo partly drawn) [Example 76, 1-[(6-{6,6-Difluoro-3-azabicyclo[3.1.0]hexan-3-yl}-2-ethylpyridin-3-yl)methyl]-N-[(4R)-1-methyl-1H,4H,5H,6H-cyclopenta[d]imidazol-4-yl]-1H-imidazole-4-carboxamide] |
| 0.9 | 1880 | Cn1cnc2c1CC[C@H]2NC(=O)c1cn(Cc2ccc(N3CC4(CC4)C3)nc2Br)nn1 [Example 6, 1-[(6-{5-Azaspiro[2.3]hexan-5-yl}-2-bromopyridin-3-yl)methyl]-N-[(4R)-1-methyl-1H,4H,5H,6H-cyclo-penta[d]imidazol-4-yl]-1H-1,2,3-triazole-4-carboxamide] |
| 9.8 | 1970 | Cc1cc(N2CC3CC3C2)ncc1Cn1cnc(C(=O)N[C@@H]2CCc3c2ncn3C)c1 (stereo partly drawn) [Example 106, 1-[(6-{3-Azabicyclo[3.1.0]hexan-3-yl}-4-methylpyridin-3-yl)methyl]-N-[(4R)-1-methyl-1H,4H,5H,6H-cyclopenta[d]imidazol-4-yl]-1H-imidazole-4-carboxamide] |
| 0.6 | 130 | Cn1cnc2c1CC[C@H]2NC(=O)c1cn(Cc2ccc(N3CC4CC4C3)c(C#N)c2F)cn1 (stereo partly drawn) [Example 201, 1-[(4-{3-azabicyclo[3.1.0]hexan-3-yl}-3-cyano-2-fluorophenyl)methyl]-N-[(4R)-1-methyl-1H,4H,5H,6H-cyclopenta[d]imidazol-4-yl]-1H-imidazole-4-carboxamide] |
| 0.5 | 280 | CCc1nc(N2CC3C(C2)C3(F)F)ccc1Cc1cc(C(=O)N[C@@H]2CCc3c2ncn3C)on1 (stereo partly drawn) [Example 153, 3-[(6-{6,6-Difluoro-3-azabicyclo[3.1.0]hexan-3-yl}-2-ethylpyridin-3-yl)methyl]-N-[(4R)-1-methyl-1H,4H,5H,6H-cyclopenta[d]imidazol-4-yl]-1,2-oxazole-5-carboxamide] |
| 9.6 | 774 | Cn1cnc2c1CC[C@H]2NC(=O)c1c[nH]c(Cc2ccc(N3CC4C(C3)C4(F)F)nc2)c1 (stereo partly drawn) [Example 139, 5-[(6-{6,6-Difluoro-3-azabicyclo[3.1.0]hexan-3-yl}pyridin-3-yl)methyl]-N-[(4R)-1-methyl-1H,4H,5H,6H-cyclopenta[d]imidazol-4-yl]-1H-pyrrole-3-carboxamide] |
| 1.6 | 511 | Cn1cnc2c1CC[C@H]2NC(=O)c1cc(Cc2ccc(N3CC4CC4C3)nc2CO)no1 (stereo partly drawn) [Example 149, 3-[(6-{3-Azabicyclo[3.1.0]hexan-3-yl}-2-(hydroxymethyl)pyridin-3-yl)methyl]-N-[(4R)-1-methyl-1H,4H,5H,6H-cyclopenta[d]imidazol-4-yl]-1,2-oxazole-5-carboxamide] |
| 5.5 | 577 | COCc1nc(N2CC3C(C2)C3(F)F)ccc1Cn1cnc(C(=O)N[C@@H]2CCc3c2ncn3C)c1 (stereo partly drawn) [Example 95, 1-[(6-{6,6-Difluoro-3-azabicyclo[3.1.0]hexan-3-yl}-2-(methoxymethyl)pyridin-3-yl)methyl]-N-[(4R)-1-methyl-1H,4H,5H,6H-cyclopenta-[d]imidazol-4-yl]-1H-imidazole-4-carboxamide] |
| 3.4 | 802 | Cn1cnc2c1CC[C@H]2NC(=O)c1cnn(Cc2ccc(N3CC4(CC4)C3)nc2F)c1 [Example 12, 1-[(6-{5-Azaspiro[2.3]hexan-5-yl}-2-fluoropyridin-3-yl)methyl]-N-[(4R)-1-methyl-1H,4H,5H,6H-cyclopenta[d]imidazol-4-yl]-1H-pyrazole-4-carboxamide] |
| 0.5 | 117 | Cc1c(Cn2cnc(C(=O)N[C@@H]3CCc4c3ncn4C)c2)cnc(N2CC3C(C2)C3(F)F)c1C#N (stereo partly drawn) [Example 105, 1-[(5-Cyano-6-{6,6-difluoro-3-azabicyclo[3.1.0]-hexan-3-yl}-4-methylpyridin-3-yl)methyl]-N-[(4R)-1-methyl-1H,4H,5H,6H-cyclopenta-[d]imidazol-4-yl]-1H-imidazole-4-carboxamide] |
| 1.4 | 985 | Cn1cnc2c1CC[C@H]2NC(=O)c1cc(Cc2ccc(N3CC4CC4C3)nc2Cl)no1 (stereo partly drawn) [Example 148, 3-[(6-{3-Azabicyclo[3.1.0]hexan-3-yl}-2-chloropyridin-3-yl)methyl]-N-[(4R)-1-methyl-1H,4H,5H,6H-cyclopenta[d]imidazol-4-yl]-1,2-oxazole-5-carboxamide] |
| 6.8 | 317 | COCc1nc(N2CC3(CC3)C2)ccc1Cn1cc(C(=O)N[C@@H]2CCc3c2ncn3C)cn1 [Example 78, 1-[(6-{5-Azaspiro[2.3]hexan-5-yl}-2-(methoxymethyl)-pyridin-3-yl)methyl]-N-[(4R)-1-methyl-1H,4H,5H,6H-cyclopenta[d]imidazol-4-yl]-1H-pyrazole-4-carboxamide] |
| 1.9 | 425 | Cn1cnc2c1CC[C@H]2NC(=O)c1cnn(Cc2ccc(N3CC4CC4C3)nc2C#N)c1 (stereo partly drawn) [Example 132, 1-[(6-{3-Azabicyclo[3.1.0]hexan-3-yl}-2-cyanopyridin-3-yl)methyl]-N-[(4R)-1-methyl-1H,4H,5H,6H-cyclopenta[d]imidazol-4-yl]-1H-pyrazole-4-carboxamide] |
| 2.1 | 460 | Cn1cnc2c1CC[C@H]2NC(=O)c1cnn(Cc2ccc(N3CC4C(C3)C4(F)F)nc2F)c1 (stereo partly drawn) [Example 18, 1-[(6-{6,6-Difluoro-3-azabicyclo[3.1.0]hexan-3-yl}-2-fluoropyridin-3-yl)methyl]-N-[(4R)-1-methyl-1H,4H,5H,6H-cyclopenta[d]imidazol-4-yl]-1H-pyrazole-4-carboxamide] |
| 3.4 | 488 | Cn1cnc2c1CC[C@H]2NC(=O)c1cnn(Cc2ccc(N3CC4C(C3)C4(F)F)cn2)c1 (stereo partly drawn) [Example 41, 1-[(5-{6,6-Difluoro-3-azabicyclo[3.1.0]hexan-3-yl}pyridin-2-yl)methyl]-N-[(4R)-1-methyl-1H,4H,5H,6H-cyclopenta[d]imidazol-4-yl]-1H-pyrazole-4-carboxamide] |
| 1.7 | 110 | Cn1cnc2c1CC[C@H]2NC(=O)c1cn(Cc2ccc(N3CC4C(C3)C4(F)F)nc2CO)nn1 (stereo partly drawn) [Example 50, 1-[(6-{6,6-Difluoro-3-azabicyclo[3.1.0]hexan-3-yl}-2-(hydroxymethyl)pyridin-3-yl)methyl]-N-[(4R)-1-methyl-1H,4H,5H,6H-cyclopenta[d]-imidazol-4-yl]-1H-1,2,3-triazole-4-carboxamide] |
| 0.8 | 414 | CCc1nc(N2CC3C(C2)C3(F)F)ccc1Cn1cc(C(=O)N[C@@H]2CCc3c2ncn3C)nn1 (stereo partly drawn) [Example 109, 1-[(6-{6,6-Difluoro-3-azabicyclo[3.1.0]hexan-3-yl}-2-ethylpyridin-3-yl)methyl]-N-[(4R)-1-methyl-1H,4H,5H,6H-cyclopenta[d]imidazol-4-yl]-1H-1,2,3-triazole-4-carboxamide] |
| 9.6 | 498 | Cn1cnc2c1CC[C@H]2NC(=O)c1cnn(Cc2ccc(N3CC4(CC4)C3)nc2)c1 [Example 73, 1-[(6-{5-Azaspiro[2.3]hexan-5-yl}pyridin-3-yl)-methyl]-N-[(4R)-1-methyl-1H,4H,5H,6H-cyclopenta[d]imidazol-4-yl]-1H-pyrazole-4-carboxamide] |
| 3.8 | 603 | Cn1cnc2c1CC[C@H]2NC(=O)c1cnn(Cc2ccc(N3CC4CC4C3)cn2)c1 (stereo partly drawn) [Example 9, 1-[(5-{3-Azabicyclo[3.1.0]hexan-3-yl}pyridin-2-yl)methyl]-N-[(4R)-1-methyl-1H,4H,5H,6H-cyclopenta[d]imidazol-4-yl]-1H-pyrazole-4-carboxamide] |
